Test results as given in paper PMC7956753, “Development of ^18F-Labeled Radiotracers for PET Imaging of the Adenosine A2A Receptor: Synthesis, Radiolabeling and Preliminary Biological Evaluation” (International Journal of Molecular Sciences, 2021).
“And” between values parts separate entries of the source, which are not always exact repeats. Equal entries are not always repeated. Where two headings read alike, the source gives them in different places.

Legend:
human A1R = biological target: T1, human A1R (Homo sapiens, UniProt P30542); assay: In vitro radioligand binding assay with [3H]DPCPX on membranes of CHO-K1 cells stably transfected with human A1R
T1 sequence (P30542 1-326): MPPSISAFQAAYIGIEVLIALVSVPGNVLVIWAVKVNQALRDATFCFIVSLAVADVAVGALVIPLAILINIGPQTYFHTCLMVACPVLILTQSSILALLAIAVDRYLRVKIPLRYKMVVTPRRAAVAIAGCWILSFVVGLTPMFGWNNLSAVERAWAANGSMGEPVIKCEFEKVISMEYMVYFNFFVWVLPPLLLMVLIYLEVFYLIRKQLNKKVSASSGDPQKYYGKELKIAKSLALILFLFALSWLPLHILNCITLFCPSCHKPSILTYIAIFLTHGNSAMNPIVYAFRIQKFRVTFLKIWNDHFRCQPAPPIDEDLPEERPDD

human A2AR = human A2AR (Homo sapiens, UniProt P29274); assay: In vitro radioligand binding assay with [3H]ZM241385 on membranes of CHO-K1 cells stably transfected with human A2AR; conditions: for Ki: in-house, mean ± standard deviation (n ≥ 3) or mean (n = 2, single values in brackets), Cheng-Prusoff
[1] = read-out: Ki(hA1R), in-house, mean ± standard deviation (n ≥ 3) or mean (n = 2, single values in brackets), Cheng-Prusoff

human A2AR, sequence (P29274 whole entry): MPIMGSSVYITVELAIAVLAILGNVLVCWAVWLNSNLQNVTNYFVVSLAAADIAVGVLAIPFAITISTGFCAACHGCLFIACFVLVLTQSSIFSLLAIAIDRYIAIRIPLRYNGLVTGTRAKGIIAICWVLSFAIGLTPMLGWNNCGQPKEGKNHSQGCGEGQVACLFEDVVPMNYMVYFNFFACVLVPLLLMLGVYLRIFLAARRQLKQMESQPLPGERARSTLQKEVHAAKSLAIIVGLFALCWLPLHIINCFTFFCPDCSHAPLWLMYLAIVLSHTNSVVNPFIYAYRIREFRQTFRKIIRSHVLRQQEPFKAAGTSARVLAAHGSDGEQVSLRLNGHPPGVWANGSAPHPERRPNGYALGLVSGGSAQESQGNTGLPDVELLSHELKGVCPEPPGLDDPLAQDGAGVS

(6-Amino-4-(furan-2-yl)-1H-pyrazolo[3,4-d]pyrimidin-1-yl)(2-fluorophenyl)-methanone [PPY20]
Ki (human A1R; [1]): 1420 nM | Ki (human A2AR; read-out: Ki(hA2AR)): 275 nM

Nc1nc(-c2ccco2)c2cnn(Cc3cccc(Cl)c3)c2n1 [PPY, reference compound]
Ki (human A2AR; read-out: Ki(hA2AR)): 1 ± 0.09 nM

N#Cc1cc(F)cc(Cn2ncc3c(-c4ccco4)nc(N)nc32)c1 [PPY14, 3-((6-Amino-4-(furan-2-yl)-1H-pyrazolo[3,4-d]pyrimidin-1-yl)methyl)-5-fluoro-benzonitrile]
Ki (human A1R): 954 nM | Ki (human A2AR; Ki(hA2AR)): 291 nM

Nc1nc(-c2ccco2)c2cnn(Cc3ccccc3F)c2n1 [PPY2, 1-(2-Fluorobenzyl)-4-(furan-2-yl)-1H-pyrazolo[3,4-d]pyrimidin-6-amine]
Ki (human A2AR; Ki(hA2AR)): 2.13 ± 0.42 nM | increase of A2AR binding affinity compared with PPY1 (human A2AR; ortho- vs para-fluorine): 2.5 fold | Ki (human A2AR; read-out: Ki(hA2AR)): 2.1 nM

1-((6-Fluoropyridin-3-yl)methyl)-4-(furan-2-yl)-1H-pyrazolo[3,4-d]pyrimidin-6-amine [PPY5]
Ki (human A1R; [1]): 689 nM | Ki (human A2AR; read-out: Ki(hA2AR)): 25.7 ± 0.9 nM

Nc1nc(-c2ccco2)c2cnn(C(=O)c3ccccc3F)c2n1 [PPY21, (6-Amino-4-(furan-2-yl)-1H-pyrazolo[3,4-d]pyrimidin-1-yl)(2-fluorophenyl)-methanone]
Ki (human A1R): 1550 nM | Ki (human A2AR; Ki(hA2AR)): 283 nM

Nc1nc(-c2ccco2)c2cnn(Cc3c(F)cccc3Br)c2n1 [PPY11, 1-(2-Bromo-6-fluorobenzyl)-4-(furan-2-yl)-1H-pyrazolo[3,4-d]pyrimidin-6-amine]
Ki (human A1R): 162 ± 22 nM | Ki (human A2AR; Ki(hA2AR)): 2.35 ± 0.3 nM

1-((6-Fluoropyridin-2-yl)methyl)-4-(furan-2-yl)-1H-pyrazolo[3,4-d]pyrimidin-6-amine [PPY6]
Ki (human A1R; [1]): 566 nM | Ki (human A2AR; read-out: Ki(hA2AR)): 27.1 ± 2.6 nM

Nc1nc(-c2ccco2)c2cnn(CCc3ccccc3F)c2n1 [PPY19, 1-(2-Fluorophenethyl)-4-(furan-2-yl)-1H-pyrazolo[3,4-d]pyrimidin-6-amine]
Ki (human A1R): 245 nM | Ki (human A2AR; Ki(hA2AR)): 107 nM

Nc1nc(-c2ccco2)c2cnn(Cc3cccc(F)c3)c2n1 [PPY3, 1-(3-Fluorobenzyl)-4-(furan-2-yl)-1H-pyrazolo[3,4-d]pyrimidin-6-amine]
Ki (human A1R): 132 nM | Ki (human A2AR; Ki(hA2AR)): 3.6 ± 1.29 nM | decrease of A2AR binding affinity compared with PPY (human A2AR; chlorine (PPY) exchanged for fluorine): 3 fold

Nc1nc(-c2ccco2)c2cnn(Cc3ccc(Br)cc3F)c2n1 [PPY8, 1-(4-Bromo-2-fluorobenzyl)-4-(furan-2-yl)-1H-pyrazolo[3,4-d]pyrimidin-6-amine]
Ki (human A1R): 31.3 ± 15.5 nM | Ki (human A2AR; Ki(hA2AR)): 0.93 ± 0.1 nM | increase of A2AR binding affinity compared with PPY2 (human A2AR; additional bromine): 2 fold

Nc1nc(-c2ccco2)c2cnn(Cc3cc(F)cc(Br)c3)c2n1 [PPY10, 1-(3-Bromo-5-fluorobenzyl)-4-(furan-2-yl)-1H-pyrazolo[3,4-d]pyrimidin-6-amine]
Ki (human A1R): 160 nM | Ki (human A2AR; Ki(hA2AR)): 14.2 nM

Nc1nc(-c2ccco2)c2cnn(Cc3ccnc(F)c3)c2n1 [PPY7, 1-((2-Fluoropyridin-4-yl)methyl)-4-(furan-2-yl)-1H-pyrazolo[3,4-d]pyrimidin-6-amine]
Ki (human A1R): 2880 nM | Ki (human A2AR; Ki(hA2AR)): 161 ± 19 nM

2-((6-Amino-4-(furan-2-yl)-1H-pyrazolo[3,4-d]pyrimidin-1-yl)methyl)-5-fluoro-benzonitrile [PPY12]
Ki (human A1R; [1]): 810 nM | Ki (human A2AR; read-out: Ki(hA2AR)): 66.7 nM

Nc1nc(-c2ccco2)c2cnn(Cc3cccc(OCCCF)c3)c2n1 [PPY18, 1-(3-(3-Fluoropropoxy)benzyl)-4-(furan-2-yl)-1H-pyrazolo[3,4-d]pyrimidin-6-amine]
Ki (human A2AR; Ki(hA2AR)): 76.8 ± 12.9 nM

Nc1nc(-c2ccco2)c2cnn(Cc3ccccc3)c2n1 [PPY22, 1-Benzyl-4-(furan-2-yl)-1H-pyrazolo[3,4-d]pyrimidin-6-amine]
Ki (human A2AR; Ki(hA2AR)): 1.68 ± 0.14 nM

Nc1nc(-c2ccco2)c2cnn(Cc3cccc(OCCF)c3)c2n1 [PPY17, 1-(3-(2-Fluoroethoxy)benzyl)-4-(furan-2-yl)-1H-pyrazolo[3,4-d]pyrimidin-6-amine]
Ki (human A1R): 215 ± 38 nM | Ki (human A2AR; Ki(hA2AR)): 4.5 ± 0.99 nM

N#Cc1cccc(F)c1Cn1ncc2c(-c3ccco3)nc(N)nc21 [PPY15, 2-((6-Amino-4-(furan-2-yl)-1H-pyrazolo[3,4-d]pyrimidin-1-yl)methyl)-3-fluoro-benzonitrile]
Ki (human A1R): 470 nM | Ki (human A2AR; Ki(hA2AR)): 12.3 nM

Nc1nc(-c2ccco2)c2cnn(Cc3cccnc3F)c2n1 [PPY4, 1-((2-Fluoropyridin-3-yl)methyl)-4-(furan-2-yl)-1H-pyrazolo[3,4-d]pyrimidin-6-amine]
Ki (human A1R): 822 nM | Ki (human A2AR; Ki(hA2AR)): 47.8 ± 4.8 nM

Nc1nc(-c2ccco2)c2cnn(Cc3ccc(F)cc3Br)c2n1 [PPY9, 1-(2-Bromo-4-fluorobenzyl)-4-(furan-2-yl)-1H-pyrazolo[3,4-d]pyrimidin-6-amine]
Ki (human A2AR; Ki(hA2AR)): 34.1 nM

Nc1nc(-c2ccco2)c2cnn(Cc3cccc(CCF)c3)c2n1 [PPY16, 1-(3-(2-Fluoroethyl)benzyl)-4-(furan-2-yl)-1H-yrazolo[3,4-d]pyrimidin-6-amine]
Ki (human A1R): 69.2 ± 32.8 nM | Ki (human A2AR; Ki(hA2AR)): 1.63 ± 0.22 nM

Nc1nc(-c2ccco2)c2cnn(Cc3ccc(F)cc3)c2n1 [PPY1, 1-(4-Fluorobenzyl)-4-(furan-2-yl)-1H-pyrazolo[3,4-d]pyrimidin-6-amine]
Ki (human A1R): 220 nM | Ki (human A2AR; Ki(hA2AR)): 5.3 nM and 5.29 nM
